This note sets out measurements from patent US12473290B2, “Imidazopyridazine compounds useful as modulators of IL-12, IL-23 and/or IFN alpha responses” (BRISTOL-MYERS SQUIBB COMPANY, priority 2019, dated 2025).

The nature of assay [1]: Kit225 T Cell Assay, IL-23-stimulated STAT-dependent luciferase reporter. The class given is cell-based. The following applies: Kit225 T cells, 20 ng/mL human recombinant IL-23, 5-6 hours, luciferase expression. On the procedure: (§1) Kit225 T cells with a stably-integrated STAT-dependent luciferase reporter were plated in RPMI (Gibco) containing 10% heat-inactivated FBS (Gibco) and 100 U/mL PenStrep (Gibco). The cells were then stimulated with either 20 ng/mL human recombinant IL-23 or 200 U/mL human recombinant IFNα (PBL InterferonSource) for 5-6 hours. Luciferase expression was measured using the STEADY-GLO® Luciferase Assay System (Promega) according to the manufacturer's instructions. Inhibition data were calculated by comparison to no inhibitor control wells for 0% inhibition and non-stimulated control wells for 100% inhibition. Dose response curves were generated to determine the concentration required to inhibit 50% of cellular response (IC50) as derived by non-linear regression analysis.
For orientation: A reporter such as luciferase makes a cellular process visible.

Assay [2] deals with IFNα Kit225 Reporter (Kit225 T cells with a stably-integrated STAT-dependent luciferase reporter, stimulated with IFNα). Put plainly: Kit225 T Cell Assay, IFNα-stimulated STAT-dependent luciferase reporter. The class given is cell-based. The following applies: 200 U/mL human recombinant IFNα, 5-6 hours, luciferase expression. On the procedure: as §1

The term IC50 denotes the concentration at which inhibition is half-maximal. In the case of `CC(C)Oc1nc(Nc2cc(N[C@@H]3CCCC[C@H]3O)nn3c(C#N)cnc23)ccc1C(=O)N1CCCC1` [Example 1, 6-{[(1R,2R)-2-hydroxycyclohexyl]amino}-8-{[6-(propan-2-yloxy)-5-(pyrrolidine-1-carbonyl)pyridin-2-yl]amino}imidazo[1,2-b]pyridazine-3-carbonitrile], the IC50 in assay [1] is 0.24 µM; in assay [2], 0.83 µM.
Take `N#Cc1cnc2c(Nc3ccc(C(=O)N4CCCC4)c(N4CCCC4)n3)cc(N[C@@H]3CCCC[C@H]3O)nn12` [Example 2, 6-{[(1R,2R)-2-hydroxycyclohexyl]amino}-8-{[6-(pyrrolidin-1-yl)-5-(pyrrolidine-1-carbonyl)pyridin-2-yl]amino}imidazo[1,2-b]pyridazine-3-carbonitrile]: the half-inhibitory concentration (IC50) turned out to be 0.28 µM in assay [1] and 0.69 µM in assay [2].
For `CN(C)c1nc(Nc2cc(N[C@@H]3CCCC[C@H]3O)nn3c(C#N)cnc23)ccc1C(=O)N1CCCC1` [Example 3, 8-{[6-(dimethylamino)-5-(pyrrolidine-1-carbonyl)pyridin-2-yl]amino}-6-{[(1R,2R)-2-hydroxycyclohexyl]amino}imidazo[1,2-b]pyridazine-3-carbonitrile] the same measures were 0.14 µM and 0.19 µM.
For `N#Cc1cnc2c(Nc3ccc(C(=O)N4CCCC4)c(OCC(F)(F)F)n3)cc(N[C@@H]3CCCC[C@H]3O)nn12` [Example 4, 6-{[(1R,2R)-2-hydroxycyclohexyl]amino}-8-{[5-(pyrrolidine-1-carbonyl)-6-(2,2,2-trifluoroethoxy)pyridin-2-yl]amino}imidazo[1,2-b]pyridazine-3-carbonitrile] the same measures were 0.46 µM and 0.52 µM.
For `CC(C)(C)Oc1nc(Nc2cc(N[C@H]3CCCC[C@@H]3O)nn3c(C#N)cnc23)ccc1C(=O)N1CCCC1` [Example 5, 8-{[6-(tert-butoxy)-5-(pyrrolidine-1-carbonyl)pyridin-2-yl]amino}-6-{[(1S,2S)-2-hydroxycyclohexyl]amino}imidazo[1,2-b]pyridazine-3-carbonitrile], in that order: 1.13 µM and 1.3 µM.
On to `CC(C)(C)N1CCN(c2cccc(Nc3cc(N[C@@H]4CCCC[C@H]4O)nn4c(C#N)cnc34)n2)C1=O` [Example 6, 8-{[6-(3-tert-butyl-2-oxoimidazolidin-1-yl)pyridin-2-yl]amino}-6-{[(1R,2R)-2-hydroxycyclohexyl]amino}imidazo[1,2-b]pyridazine-3-carbonitrile], for which the IC50 in assay [1] turned out to be 0.58 µM; in assay [2] it was 0.45 µM.
For `CC(C)(C)C(=O)Nc1cccc(Nc2cc(N[C@@H]3CCCC[C@H]3O)nn3c(C#N)cnc23)n1` [Example 7, N-{6-[(3-cyano-6-{[(1R,2R)-2-hydroxycyclohexyl]amino}imidazo[1,2-b]pyridazin-8-yl)amino]pyridin-2-yl}-2,2-dimethylpropanamide], in that order: 0.61 µM and 0.81 µM.
For `CC1(C(=O)Nc2cccc(Nc3cc(N[C@@H]4CCCC[C@H]4O)nn4c(C#N)cnc34)n2)CC1` [Example 8, N-{6-[(3-cyano-6-{[(1R,2R)-2-hydroxycyclohexyl]amino}imidazo[1,2-b]pyridazin-8-yl)amino]pyridin-2-yl}-1-methylcyclopropane-1-carboxamide], in that order: 0.49 µM and 0.28 µM.
For `CC(C)(O)C(=O)Nc1cccc(Nc2cc(N[C@@H]3CCCC[C@H]3O)nn3c(C#N)cnc23)n1` [Example 9, N-{6-[(3-cyano-6-{[(1R,2R)-2-hydroxycyclohexyl]amino}imidazo[1,2-b]pyridazin-8-yl)amino]pyridin-2-yl}-2-hydroxy-2-methylpropanamide] the same measures were 0.22 µM and 0.39 µM.
Consider `N#Cc1cnc2c(Nc3cccc(NC(=O)c4ccccc4)n3)cc(N[C@@H]3CCCC[C@H]3O)nn12` [Example 10, N-{6-[(3-cyano-6-{[(1R,2R)-2-hydroxycyclohexyl]amino}imidazo[1,2-b]pyridazin-8-yl)amino]pyridin-2-yl}benzamide], for which the IC50 is 0.15 µM in assay [1] and 0.27 µM in assay [2].
Consider `CC1(C)CCCN1C(=O)c1ccc(Nc2cc(N[C@H]3CCCC[C@@H]3O)nn3c(C#N)cnc23)nc1` [Example 11, 8-{[5-(2,2-dimethylpyrrolidine-1-carbonyl)pyridin-2-yl]amino}-6-{[(1S,2S)-2-hydroxycyclohexyl]amino}imidazo[1,2-b]pyridazine-3-carbonitrile], for which the results for the IC50 in assay [1] and in assay [2] were 0.56 µM and 0.36 µM, respectively.
For `CC(C)(C)Oc1nc(Nc2cc(N[C@@H]3CCCC[C@H]3O)nn3c(C#N)cnc23)ccc1C(=O)N1CCCC1` [Example 12, 8-{[6-(tert-butoxy)-5-(pyrrolidine-1-carbonyl)pyridin-2-yl]amino}-6-{[(1R,2R)-2-hydroxycyclohexyl]amino}imidazo[1,2-b]pyridazine-3-carbonitrile], in that order: 2.73 µM and 0.38 µM.
For `N#Cc1cnc2c(Nc3ccc(C(=O)N4CCCC4)c(OCC(F)F)n3)cc(N[C@H]3CCCC[C@@H]3O)nn12` [Example 13, 8-{[6-(2,2-difluoroethoxy)-5-(pyrrolidine-1-carbonyl)pyridin-2-yl]amino}-6-{[(1S,2S)-2-hydroxycyclohexyl]amino}imidazo[1,2-b]pyridazine-3-carbonitrile] the same measures were 0.45 µM and 0.64 µM.
On to `N#Cc1cnc2c(Nc3ccc(C(=O)N4CCCC4)c(N4CCCC4)n3)cc(N[C@H]3CCCC[C@@H]3O)nn12` [Example 14, 6-{[(1S,2S)-2-hydroxycyclohexyl]amino}-8-{[6-(pyrrolidin-1-yl)-5-(pyrrolidine-1-carbonyl)pyridin-2-yl]amino}imidazo[1,2-b]pyridazine-3-carbonitrile], for which the IC50 was determined as 0.66 µM in assay [1] and 0.49 µM in assay [2].
For `N#Cc1cnc2c(Nc3ccc(C(=O)N4CCCC4)c(N4CC(F)C4)n3)cc(N[C@H]3CCCC[C@@H]3O)nn12` [Example 15, 8-{[6-(3-fluoroazetidin-1-yl)-5-(pyrrolidine-1-carbonyl)pyridin-2-yl]amino}-6-{[(1S,2S)-2-hydroxycyclohexyl]amino}imidazo[1,2-b]pyridazine-3-carbonitrile], in that order: 0.65 µM and 0.82 µM.
For `CC1(C)CCCN1C(=O)c1ccc(Nc2cc(N[C@@H]3CCCC[C@H]3O)nn3c(C#N)cnc23)nc1` [Example 16, 8-{[5-(2,2-dimethylpyrrolidine-1-carbonyl)pyridin-2-yl]amino}-6-{[(1R,2R)-2-hydroxycyclohexyl]amino}imidazo[1,2-b]pyridazine-3-carbonitrile], in that order: 0.09 µM and 0.13 µM.
For `CC(C)(C)NC(=O)c1cccc(Nc2cc(NC34CC5CC(CC(O)(C5)C3)C4)nn3c(C#N)cnc23)n1` [Example 17, N-tert-butyl-6-({3-cyano-6-[(3-hydroxyadamantan-1-yl)amino]imidazo[1,2-b]pyridazin-8-yl}amino)pyridine-2-carboxamide] the same measures were 0.42 µM and 0.49 µM.
Turning to `COc1cccc2ccc(Nc3cc(NC45CC6CC(CC(O)(C6)C4)C5)nn4c(C#N)cnc34)nc12` [Example 18, 6-[(3-hydroxyadamantan-1-yl)amino]-8-[(8-methoxyquinolin-2-yl)amino]imidazo[1,2-b]pyridazine-3-carbonitrile], the IC50 in assay [1] came out at 0.19 µM; in assay [2], 0.46 µM.
For `N#Cc1cnc2c(Nc3ccc4c(C(F)(F)F)cc(C(F)(F)F)nc4n3)cc(NC34CC5CC(O)(CC(O)(C5)C3)C4)nn12` [Example 19, 8-{[5,7-bis(trifluoromethyl)-1,8-naphthyridin-2-yl]amino}-6-[(3,5-dihydroxyadamantan-1-yl)amino]imidazo[1,2-b]pyridazine-3-carbonitrile], in that order: 0.59 µM and 0.81 µM.
For `N#Cc1cnc2c(Nc3cccc(C(F)(F)F)n3)cc(NC34CC5CC(O)(CC(O)(C5)C3)C4)nn12` [Example 20, 6-[(3,5-dihydroxyadamantan-1-yl)amino]-8-{[6-(trifluoromethyl)pyridin-2-yl]amino}imidazo[1,2-b]pyridazine-3-carbonitrile] the same measures were 0.44 µM and 0.15 µM.
For `COc1ccc(Nc2cc(NC34CC5CC(O)(CC(O)(C5)C3)C4)nn3c(C#N)cnc23)nc1NC(=O)C(C)(C)C` [Example 21, N-[6-({3-cyano-6-[(3,5-dihydroxyadamantan-1-yl)amino]imidazo[1,2-b]pyridazin-8-yl}amino)-3-methoxypyridin-2-yl]-2,2-dimethylpropanamide] the same measures were 0.43 µM and 0.76 µM.
Turning to `COc1cccc2ccc(Nc3cc(NC45CC6CC(O)(CC(F)(C6)C4)C5)nn4c(C#N)cnc34)nc12` (stereo not shown) [Example 22, 6-[(3-fluoro-5-hydroxyadamantan-1-yl)amino]-8-[(8-methoxyquinolin-2-yl)amino]imidazo[1,2-b]pyridazine-3-carbonitrile], the IC50 is 0.36 µM in assay [1] and 0.85 µM in assay [2].
For `N#Cc1cnc2c(Nc3ccc(C(=O)N4CCCC4)cn3)cc(NC3CCOCC3)nn12` [Example 23, 6-[(oxan-4-yl)amino]-8-{[5-(pyrrolidine-1-carbonyl)pyridin-2-yl]amino}imidazo[1,2-b]pyridazine-3-carbonitrile] the same measures were 0.47 µM and 0.34 µM.
